The values that follow come from patent US7897779B2, “Ionic UV-A sunscreens and compositions containing them” (DSM IP Assets B.V., priority 2004, dated 2011).

What is called solubility is the dissolved amount per volume that the medium holds.

A short description of data set [1]: UV absorption spectrum (absorption maximum and extinction E). In kind it is physicochemical. Details: extinction E: unit not given beside the values. As to conditions: for extinction E: at absorption maximum. An excerpt: This salt was recrystallized from DMF.
The reaction mixture was concentrated at the rotavap, followed by HV drying. The residue is washed with cyclohexane and then with ethylacetate followed by recrystallization from ethanol.

For data set [2] the following is noted: prior-art water-soluble UV-A sunscreen (EP-A 669 323, DE 33 24 735); cited from earlier work.
The nature of data set [3]: Photostability according to Berset et al., Internat. J. Cosmetic Science 18: 167-177 (1996). It counts as physicochemical. The note with it: solution in water/glycerol=7:3 as liquid phase. The protocol:
209-210° C. […] One equivalent of aq. […] M.p. […] .

The next data set in a line: physchem. The note with it: water.

As to `CC1=CC(=C(C#N)C#N)C=C(C)N1c1cccc(OCCCS(=O)(=O)[O-])c1.[Na+]` [Example 5, 3-[3-(4-dicyanomethylene-2,6-dimethyl-4H-pyridin-1-yl)-phenoxy]propane-1-sulfonic acid], in data set [1] (UV (water)), the UV absorption maximum amounted to 352 nm and the “extinction E” value stood at 1150.
Take `O=S(=O)([O-])c1cc(S(=O)(=O)O)cc2[nH]c(-c3ccc(-c4nc5c(S(=O)(=O)[O-])cc(S(=O)(=O)O)cc5[nH]4)cc3)nc12.[Na+].[Na+]` [disodium phenyldibenzimidazole tetrasulfonate]: in data set [2], the absorption maximum is reported as 335 nm and the “extinction value E” value is given as 745.
`CC1=CC(=C(C#N)C#N)C=C(C)N1CCOS(=O)(=O)[O-].[Na+]` [Example 2, 4-dicyanomethylene-2,6-dimethyl-1,4-dihydropyridine-N-(ethyloxysulfate estermonosodium salt)]: in data set [1] (UV (water)), the UV absorption maximum stood at 352 nm and the “extinction E” value turned out to be 1261. For the same molecule, the photostability entry in data set [3] is recorded as “photostable”.
Regarding `CC1(C)C2CCC1(CS(=O)(=O)O)C(=O)C2=Cc1ccc(C=C2C(=O)C3(CS(=O)(=O)O)CCC2C3(C)C)cc1` [terephthalylidene dicamphorsulfonic acid], in data set [2], the absorption maximum is reported as 345 nm and the “extinction value E” value is listed as 866.
In the case of `CC1=CC(=C(C#N)C#N)C=C(C)N1CCOCC[n+]1ccccc1` [Example 4, 1-{2-[2-(4-dicyanomethylene-2,6-dimethyl-4H-pyridin-1-yl)-ethoxy]-ethyl}-pyridinium chloride], in data set [1] (UV (water)), the UV absorption maximum was 352 nm and the “extinction E” value stood at 1149. For the same molecule, in “physchem”, the solubility was over 200 mg/mL.
For the molecule `CC1=CC(=C(C#N)C#N)C=C(C)N1CCOCCOP(=O)([O-])O.[Na+]` [Example 1, 4-dicyanomethylene-2,6-dimethyl-1,4-dihydropyridine-N-(ethyloxy-ethyloxyphosphate estermonosodium salt)], in data set [1] (UV (water)), the UV absorption maximum was 350 nm and the “extinction E” value is reported as 979. In data set [3], the photostability entry was “photostable”. In the data set “physchem”, this molecule gave a solubility of 168 mg/mL.
The molecule `CC1=CC(=C(C#N)C#N)C=C(C)N1CCC[N+](C)(C)CCOCCOCCO.[I-]` [Example 3] displayed a UV absorption maximum in data set [1] (UV (ethanol)) of 362 nm.
